Where “and” joins values, the source holds several entries; their conditions need not be identical. Equal values may be shown once.
Assays:
GPR139 [1] = target: T1, GPR139 (Homo sapiens, UniProt Q6DWJ6); assay: Ca2+ mobilization assay, antagonist mode (EC80 800 nM Lundbeck Cmp 1a after 20 min preincubation), GPR139-CHOk1; format: cell-based
T1 sequence (Q6DWJ6 1-353): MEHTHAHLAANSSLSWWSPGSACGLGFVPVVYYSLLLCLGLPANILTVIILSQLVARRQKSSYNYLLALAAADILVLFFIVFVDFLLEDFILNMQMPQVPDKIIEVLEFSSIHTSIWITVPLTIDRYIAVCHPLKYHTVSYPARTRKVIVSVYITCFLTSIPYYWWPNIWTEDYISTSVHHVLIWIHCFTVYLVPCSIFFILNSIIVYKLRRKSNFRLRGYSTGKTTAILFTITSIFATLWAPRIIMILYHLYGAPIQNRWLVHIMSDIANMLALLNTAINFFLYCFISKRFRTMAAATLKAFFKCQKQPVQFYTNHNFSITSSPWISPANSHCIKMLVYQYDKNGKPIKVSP
Procedure, shortened: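 Antagonist mode: 800 nM (EC80) reference agonist Lundbeck Cmp 1a added following 20 min pre-incubation with 10 µM compound. GPR139-CHOk1 cells, Fluo-4 dye, probenecid-containing HEPES buffer pH 7.4; intracellular Ca2+ measured at 37 °C (ex 485, em 525 nm).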

GPR139 [2] = target: T1, GPR139; assay: Inositol monophosphate (IP1) accumulation assay, GPR139-CHOk1; format: cell-based; conditions: for EC50 / Emax: Supplementary Table 2; for EC50: mean ± SEM, read-out: pEC50 IP1 (converted); for Emax: normalized to Lundbeck Cmp 1a, read-out: Emax (%) IP1
Protocol: Primary screening and pharmacological characterization of compounds were performed using a CHO-K1 cell line that stably expresses human GPR139 (GPR139-CHOk1). The GPR139-CHOk1 cell line was kindly provided by H. Lundbeck A/S, Denmark[24]. GPR139-CHOk1 cells were grown in Ham’s F-12 Kaighn’s Modification Medium (ThermoFisher #21127030) supplemented with 10% dialyzed fetal bovine serum (US origin, ThermoFisher #26400044), 100 units/mL Penicillin-Streptomycin (ThermoFisher #15140122), and 1 mg/mL Geneticin (ThermoFisher #11811031). […] M1R-CHOk1 cells were purchased from The Missouri S&T cDNA Resource Center (#CEM100TN00). M1R-CHOk1 cells were grown in Ham’s F12 Medium (ThermoFisher #21765029) supplemented with 10% fetal bovine serum (Brazilian origin, ThermoFisher #10270106), 100 units/mL Penicillin-Streptomycin, and 0.25 mg/mL Geneticin. HEK293A cells transiently transfected with GPR139 were used for additional pharmacological assessment of signaling pathways activated by GPR139. HEK239A cells were generously provided by Dr. Asuka Inoue, Tohoku University, Japan. HEK293A cells were grown in Dulbecco’s Modified Eagle Medium (ThermoFisher #31966047) supplemented with 10% dialyzed fetal bovine serum and 100 units/mL Penicillin-Streptomycin. Cell lines were maintained at 37 °C in humidified incubator equilibrated with 5% CO2.
HTRF IP-One Gq kit (Cisbio #62IPAPEC) was used to detect the accumulation of inositol monophosphate (IP1) as described in the work by Shehata et al.[26]. GPR139-CHOk1 cells were dissociated and resuspended in HEPES buffer. 50,000 cells in 5 µL and 5 µL test compounds diluted from DMSO stocks (final DMSO concentration of maximally 0.3%) in HEPES buffer supplemented with 40 mM LiCl were mixed in each well of white 384-well OptiPlate (PerkinElmer #6007290). The cells were incubated for 1 h at 37 °C. Then, 10 µL detection reagent composed of 2.5% Eu3 + -anti-IP1 antibody and 2.5% IP1-d2 diluted in lysis buffer was added, and the cells were incubated for 1 h at room temperature before measurements. Measurements were performed on EnVision Multimode Plate Reader (PerkinElmer) using excitation light of 340 nm and emission light of 615 nm and 665 nm. The time resolved-fluorescence resonance energy transfer (TR-FRET) 665 nm/615 nm ratio, which is inversely proportional to the IP1 accumulation, was used to determine the IP1 response.
Pharmacological data and statistical analyses were performed in GraphPad Prism v9–10 (Graphpad Software Inc., San Diego, CA), which are also specifically described in the figure and table legends. The functional assay responses were normalized to buffer (0%) and Lundbeck Cmp 1a or JNJ-63533054 (100%), for Ca^2+ and IP1 experiments in the GPR139-CHOk1 stable cell line or Ca^2+, G protein activation, and arrestin-3 recruitment experiments in the HEK293A cells transiently transfected with GPR139, respectively. Data are from at least three independent experiments, unless stated otherwise. Concentration-response curves were fitted applying non-linear regression using the log (agonist) versus response model with variable slope. ANOVA was applied for comparing results and determining statistical significance. Comparison of responses to the reference was performed using one-way ANOVA with Dunnett’s multiple comparisons test at significance threshold of p < 0.05. Comparison of responses across assays and ligands was performed using two-way ANOVA with Tukey’s multiple comparisons test at a significance threshold of p < 0.05.

[3] = individual replicates (Supplementary Figure 4)
[4] = log [compound] M -4.5, individual replicates
[5] = log [compound] M -5.0, individual replicates
[6] = log [compound] M -5.5, individual replicates
[7] = log [compound] M -6.0, individual replicates
[8] = log [compound] M -6.5, individual replicates
[9] = log [compound] M -7.0, individual replicates
[10] = log [compound] M -7.5, individual replicates
[11] = log [compound] M -8.0, individual replicates

| EC50 (GPR139 [2]) | Emax (GPR139 [2]) | SMILES | Ca2+ signal (% of Cmp 1a) (GPR139 [1]; [3]) | IP1 response (% of Cmp 1a) (GPR139 [2]; [4]) | IP1 response (% of Cmp 1a) (GPR139 [2]; [5]) | IP1 response (% of Cmp 1a) (GPR139 [2]; [6]) | IP1 response (% of Cmp 1a) (GPR139 [2]; [7]) | IP1 response (% of Cmp 1a) (GPR139 [2]; [8]) | IP1 response (% of Cmp 1a) (GPR139 [2]; [9]) | IP1 response (% of Cmp 1a) (GPR139 [2]; [10]) | IP1 response (% of Cmp 1a) (GPR139 [2]; [11]) | Ca2+ signal (% of Cmp 1a) (GPR139 [1]; individual replicates (Supplementary Figure 1)) | IP1 response (% of Cmp 1a) (GPR139 [2]; log [Compound] M -4.5, replicate experiments) | IP1 response (% of Cmp 1a) (GPR139 [2]; log [Compound] M -5.0, replicate experiments) | IP1 response (% of Cmp 1a) (GPR139 [2]; log [Compound] M -5.5, replicate experiments) | IP1 response (% of Cmp 1a) (GPR139 [2]; log [Compound] M -6.0, replicate experiments) | IP1 response (% of Cmp 1a) (GPR139 [2]; log [Compound] M -6.5, replicate experiments) | IP1 response (% of Cmp 1a) (GPR139 [2]; log [Compound] M -7.0, replicate experiments) | IP1 response (% of Cmp 1a) (GPR139 [2]; log [Compound] M -7.5, replicate experiments) | IP1 response (% of Cmp 1a) (GPR139 [2]; log [Compound] M -8.0, replicate experiments) |
| --- | --- | --- | --- | --- | --- | --- | --- | --- | --- | --- | --- | --- | --- | --- | --- | --- | --- | --- | --- | --- |
| 1580 nM | 117 ± 14% | COc1cc(-c2nc(CC(=O)NC(C)c3ccccc3)no2)ccn1 (stereo not drawn) [Compound 1.7, COC1=NC=CC(C2=NC(CC(NC(C3=CC=CC=C3)C)=O)=NO2)=C1] | -1.33 % of Cmp 1a and 38 % of Cmp 1a and -9 % of Cmp 1a | 142 % of Cmp 1a and 109 % of Cmp 1a and 76 % of Cmp 1a and 127 % of Cmp 1a | 138 % of Cmp 1a and 94 % of Cmp 1a and 74 % of Cmp 1a and 127 % of Cmp 1a | 84 % of Cmp 1a and 64 % of Cmp 1a and 60 % of Cmp 1a and 90 % of Cmp 1a | 57 % of Cmp 1a and 49 % of Cmp 1a and 36 % of Cmp 1a and 61 % of Cmp 1a | 27 % of Cmp 1a and 9 % of Cmp 1a and 14 % of Cmp 1a and 24 % of Cmp 1a | 16 % of Cmp 1a and 1.76 % of Cmp 1a and 0.565 % of Cmp 1a and 7 % of Cmp 1a | 8 % of Cmp 1a and -3 % of Cmp 1a and 0.446 % of Cmp 1a and 6 % of Cmp 1a | 7 % of Cmp 1a and -5.45 % of Cmp 1a and -4.55 % of Cmp 1a and 1 % of Cmp 1a | – | – | – | – | – | – | – | – | – |
| 2510 nM | 118 ± 5% | Cc1cc(-c2nc(CC(=O)NC(C)c3ccccc3)no2)n(C)n1 (stereo not drawn) [Compound 1.16, CC(C1=CC=CC=C1)NC(CC2=NOC(C3=CC(C)=NN3C)=N2)=O] | 5 % of Cmp 1a and 13 % of Cmp 1a and -4.67 % of Cmp 1a | 95 % of Cmp 1a and 98 % of Cmp 1a and 122 % of Cmp 1a and 128 % of Cmp 1a | 115 % of Cmp 1a and 88 % of Cmp 1a and 90 % of Cmp 1a and 87 % of Cmp 1a | 53 % of Cmp 1a and 54 % of Cmp 1a and 79 % of Cmp 1a and 67 % of Cmp 1a | 44 % of Cmp 1a and 38 % of Cmp 1a (2×) and 47 % of Cmp 1a | 8 % of Cmp 1a and 17 % of Cmp 1a and 10 % of Cmp 1a and 15 % of Cmp 1a | -3.74 % of Cmp 1a and -1.83 % of Cmp 1a and 5.46 % of Cmp 1a and 8 % of Cmp 1a | -0.538 % of Cmp 1a and 1 % of Cmp 1a and -0.216 % of Cmp 1a and 6 % of Cmp 1a | -11 % of Cmp 1a and -1 % of Cmp 1a and 0.939 % of Cmp 1a and 0.124 % of Cmp 1a | – | – | – | – | – | – | – | – | – |
| 1580 nM | 85 ± 8% | COC(=O)c1cc(NC(=O)NC(C)c2cccc(F)c2F)ccc1C (stereo not drawn) [Compound 2, COC(=O)C=1C=C(NC(=O)NC(C)C=2C=CC=C(F)C2F)C=CC1C] | – | – | – | – | – | – | – | – | – | 21.0785 % of Cmp 1a and 18.2142 % of Cmp 1a and 25.1866 % of Cmp 1a | 75 % of Cmp 1a and 55 % of Cmp 1a and 76 % of Cmp 1a and 90 % of Cmp 1a | 64 % of Cmp 1a and 44 % of Cmp 1a and 66 % of Cmp 1a and 76 % of Cmp 1a | 50 % of Cmp 1a and 41 % of Cmp 1a and 46 % of Cmp 1a and 65 % of Cmp 1a | 34 % of Cmp 1a and 26 % of Cmp 1a and 28 % of Cmp 1a and 41 % of Cmp 1a | 18 % of Cmp 1a and 16 % of Cmp 1a and 10 % of Cmp 1a and 22 % of Cmp 1a | 8 % of Cmp 1a (2×) and 5 % of Cmp 1a and 3.81 % of Cmp 1a | 6.59 % of Cmp 1a and -1 % of Cmp 1a and 0.549 % of Cmp 1a and 2.33 % of Cmp 1a | 1.89 % of Cmp 1a and -0.926 % of Cmp 1a and 0.158 % of Cmp 1a and 0.886 % of Cmp 1a |
